# Measured values: patent publication US10897901B2, “Herbicidal composition” (FMC Corporation, priority 2007, dated 2021)
# Columns and labels:
# Format in all cases: in vivo
# [1] = tested on: Redroot Pigweed (Amaranthus retroflexus); experiment: Example 4 post-emergence greenhouse pot test, pigweed; conditions: 0.25 lb ai/acre
# Experimental: (§1) Test compositions containing sulfentrazone (75 DF formulation), quniclorac, (DRIVE® 75 DF Herbicide) or mixtures of sulfentrazone and quinclorac at ratios of 1:1 to 1:5, were diluted with water to provide the appropriate test rate concentrations. A nonionic surfactant (0.25%) was added to each test solution. The test weeds include crabgrass (Digitaria sp), Chickweed (Stellaria media), Hemp Sesbania (Sesbania exaltata), Kochia (Kochia scoparia), Ivyleaf Morningglory (Ipomoea hederacea), Redroot Pigweed (Amaranthus retroflexus) and yellow nutsedge (Cyperus esculentusi).
# (§2) For post-emergence testing, three disposable 3 inch square pots for each rate of application of each herbicide were filled with a soil, comprised of peat moss, vermiculite, bark ash, pine bark, limestone and a wetting agent, to which 8 to 10 seeds were planted. The pots were placed in a greenhouse and watered daily, thus allowing the seeds to germinate and the foliage to develop for 22 days, 3 months for Kochia.
# (§3) Pots designated for treatment were placed on a conveyor belt and the conveyor belt fed under a spray nozzle mounted about ten inches above the foliage. The spray of herbicidal solution was commenced and once stabilized; the pots were passed under the spray at a speed to receive a coverage equivalent of 30 gallons per acre. The application rates are those shown in Table 4 below for the individual herbicidal solutions and the mixture of sulfentrazone and quinclorac. The post-emergence pots were immediately placed in the green-house and not watered until 24 hours after treatment with the test solution. Thereafter they were regularly watered at ground level. The control of weeds was evaluated in each experimental test from 2 to 20 days after treatment (DAT). The results, shown as an average of the replications, were compared with results observed in untreated control pots in the same tests.
# (§4) Percent control was determined by a method similar to the 0 to 100 rating system disclosed in “Research Methods in Weed Science,” 2nd ed., B. Truelove, Ed.; Southern Weed Science Society; Auburn University, Auburn, Ala., 1977.
# [2] = tested on: yellow nutsedge (Cyperus esculentusi); experiment: Example 3 post-emergence greenhouse pot test, nutsedge
# Experimental: Test compositions containing sulfentrazone (DISMISS™ Turf Herbicide), quniclorac, (DRIVE® 75 DF Herbicide) or mixture of sulfentrazone and quinclorac in a three to one ratio, prepared as described above, were diluted with water to provide the appropriate test rate concentrations. A nonionic surfactant (0.25%) was added to each test solution.
# The test weeds include Red River crabgrass (Digitaria ciliaris) and yellow nutsedge (Cyperus esculentusi).
# For post-emergence testing, three disposable 3 inch square pots for each rate of application of each herbicide were filled with a soil, comprised of peat moss, vermiculite, bark ash, pine bark, limestone and a wetting agent, to which 8 to 10 seeds were planted. The pots were placed in a greenhouse and watered daily, thus allowing the seeds to germinate and the foliage to develop.
# as §3, with “Table 3” for “Table 4”, “from 1” for “from 2”, “to 22” for “to 20”
# as §4
# [3] = tested on: Smooth Crabgrass (Digitaria ischaemum); experiment: Example 2 post-emergent turf plot test, tillered crabgrass; conditions: 0.57 lb ai/acre
# Experimental: The experimental design used randomized plots with post-emergent treatment and three replications per test trial. The size of each experimental plot was 4 feet by 6 feet. The application of each test composition was performed with pressurized back-pack sprayers, calibrated to spray 200 gallons per acre. Test compositions containing sulfentrazone (DISMISS™ Turf Herbicide), quinclorac, (FACET® 75 DF herbicide) or a mixture of sulfentrazone and quinclorac in a one to three ratio, prepared as described above, were diluted with water to provide the appropriate test rate concentrations.
# The control of weeds was evaluated in each experimental plot from 1 to 27 days after treatment (DAT) of each test rate. The results, shown as an average of the replications, were compared with results observed in untreated control plots in the same trials.
# crabgrass (Digitaria sp) = experiment: Example 4 post-emergence greenhouse pot test, crabgrass; conditions: 0.25 lb ai/acre
# Experimental: as §1, §2, §3, §4
smiles,measurement,setting,value
"Cc1nn(-c2cc(NS(C)(=O)=O)c(Cl)cc2Cl)c(=O)n1C(F)F [A, N-[2,4-dichloro-5-[4-(difluoromethyl)-4,5-dihydro-3-methyl-5-oxo-1H-1,2,4-triazol-1-yl]phenyl]methanesulfonamide]",Percent Control,[1]; 2 DAT,80%
same,Percent Control,[1]; 7 DAT,95%
same,Percent Control,[1]; 14 DAT,99%
same,Percent Control,[1]; 20 DAT,90%
same,Percent Control,"[2]; 1-5 leaf stage, 7 days old, 0.125 lb ai/acre, 1 DAT",50%
same,Percent Control,"[2]; 1-5 leaf stage, 7 days old, 0.125 lb ai/acre, 3 DAT",50%
same,Percent Control,"[2]; 1-5 leaf stage, 7 days old, 0.125 lb ai/acre, 7 DAT",63%
same,Percent Control,"[2]; 1-5 leaf stage, 7 days old, 0.125 lb ai/acre, 14 DAT",70%
same,Percent Control,"[2]; 1-5 leaf stage, 7 days old, 0.125 lb ai/acre, 21 DAT",67%
same,Percent Control,"[2]; 1-5 leaf stage, 7 days old, 0.25 lb ai/acre, 1 DAT",70%
same,Percent Control,"[2]; 1-5 leaf stage, 7 days old, 0.25 lb ai/acre, 3 DAT",85%
same,Percent Control,"[2]; 1-5 leaf stage, 7 days old, 0.25 lb ai/acre, 7 DAT",77%
same,Percent Control,"[2]; 1-5 leaf stage, 7 days old, 0.25 lb ai/acre, 14 DAT",68%
same,Percent Control,"[2]; 1-5 leaf stage, 7 days old, 0.25 lb ai/acre, 21 DAT",50%
same,Percent Control,"[2]; 1-5 leaf stage, 7 days old, 0.375 lb ai/acre, 1 DAT",75%
same,Percent Control,"[2]; 1-5 leaf stage, 7 days old, 0.375 lb ai/acre, 3 DAT",91%
same,Percent Control,"[2]; 1-5 leaf stage, 7 days old, 0.375 lb ai/acre, 7 DAT",95%
same,Percent Control,"[2]; 1-5 leaf stage, 7 days old, 0.375 lb ai/acre, 14 DAT",73%
same,Percent Control,"[2]; 1-5 leaf stage, 7 days old, 0.375 lb ai/acre, 21 DAT",70%
same,Percent Control,"[2]; 5-7 leaves, cut to 6 cm tall, 28 days old, 0.125 lb ai/acre, 1 DAT",0%
same,Percent Control,"[2]; 5-7 leaves, cut to 6 cm tall, 28 days old, 0.125 lb ai/acre, 3 DAT",80%
same,Percent Control,"[2]; 5-7 leaves, cut to 6 cm tall, 28 days old, 0.125 lb ai/acre, 7 DAT",85%
same,Percent Control,"[2]; 5-7 leaves, cut to 6 cm tall, 28 days old, 0.125 lb ai/acre, 14 DAT",70%
same,Percent Control,"[2]; 5-7 leaves, cut to 6 cm tall, 28 days old, 0.125 lb ai/acre, 21 DAT",60%
same,Percent Control,"[2]; 5-7 leaves, cut to 6 cm tall, 28 days old, 0.25 lb ai/acre, 1 DAT",0%
same,Percent Control,"[2]; 5-7 leaves, cut to 6 cm tall, 28 days old, 0.25 lb ai/acre, 3 DAT",75%
same,Percent Control,"[2]; 5-7 leaves, cut to 6 cm tall, 28 days old, 0.25 lb ai/acre, 7 DAT",80%
same,Percent Control,"[2]; 5-7 leaves, cut to 6 cm tall, 28 days old, 0.25 lb ai/acre, 14 DAT",80%
same,Percent Control,"[2]; 5-7 leaves, cut to 6 cm tall, 28 days old, 0.25 lb ai/acre, 21 DAT",90%
same,Percent Control,"[2]; 5-7 leaves, cut to 6 cm tall, 28 days old, 0.375 lb ai/acre, 1 DAT",0%
same,Percent Control,"[2]; 5-7 leaves, cut to 6 cm tall, 28 days old, 0.375 lb ai/acre, 3 DAT",90%
same,Percent Control,"[2]; 5-7 leaves, cut to 6 cm tall, 28 days old, 0.375 lb ai/acre, 7 DAT",90%
same,Percent Control,"[2]; 5-7 leaves, cut to 6 cm tall, 28 days old, 0.375 lb ai/acre, 14 DAT",90%
same,Percent Control,"[2]; 5-7 leaves, cut to 6 cm tall, 28 days old, 0.375 lb ai/acre, 21 DAT",90%
same,Percent Control,[3]; 7 DAT,34%
same,Percent Control,[3]; 14 DAT,36%
same,Percent Control,[3]; 21 DAT,52%
same,Percent Control,crabgrass (Digitaria sp); 2 DAT,10%
same,Percent Control,crabgrass (Digitaria sp); 7 DAT,10%
same,Percent Control,crabgrass (Digitaria sp); 14 DAT,5%
same,Percent Control,crabgrass (Digitaria sp); 20 DAT,5%
